Molecules are shown by their SMILES.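 How tested: cells in 96-well plates exposed to compound for 48 hours at five concentrations. GI50 marks 50% less growth. At the TGI there is no net growth.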 Bounds are passed on as bounds.

Some test systems named below: LOX IMVI melanoma; NCI-H226 lung; OVCAR-4 ovarian; SF-539 CNS; OVCAR-8 ovarian; SF-268 CNS; CAKI-1 renal; UO-31 renal; HCT-116 colon; HOP-92 NSCLC.
Holding throughout (assay): inhibition of tumour cell growth, NCI panel, 48 h

Turning to `COC(=O)c1c2c(c[n+]([O-])c1C)C(=O)C=CC2=O`, the GI50 in the experiment with LOX IMVI melanoma was 1.96 µM; in the experiment with NCI-H226 lung it was 2.12 µM; with OVCAR-4 ovarian it was 1.44 µM; in the experiment with SF-539 CNS, 1.79 µM; with OVCAR-8 ovarian, 2.93 µM; in the experiment with SF-268 CNS it was 2.83 µM. For the same compound, the GI50 in the experiment with CAKI-1 renal is 1.7 µM; in the experiment with UO-31 renal, 1.52 µM; in the experiment on HCT-116 colon, 2.19 µM; with HOP-92 NSCLC, 2.84 µM. Also, the TGI in the experiment on LOX IMVI melanoma is 4.18 µM; with NCI-H226 lung, 4.52 µM; with OVCAR-4 ovarian, 2.83 µM; in the experiment on SF-539 CNS it was 3.39 µM; with OVCAR-8 ovarian, 10.8 µM; in the experiment with SF-268 CNS it was 10.7 µM. Also, the TGI in the experiment on CAKI-1 renal amounted to 3.16 µM; in the experiment with UO-31 renal it was 3.03 µM; in the experiment on HCT-116 colon, 5.18 µM; in the experiment on HOP-92 NSCLC it was 9.06 µM.
On to `COc1ccc(-c2cc(=O)c3ccc(C)nc3[nH]2)cc1`, for which the TGI in the experiment on LOX IMVI melanoma, in the experiment with NCI-H226 lung, with OVCAR-4 ovarian, in the experiment on SF-539 CNS, in the experiment on OVCAR-8 ovarian and in the experiment with SF-268 CNS was greater than 100 µM throughout. Also, the TGI with CAKI-1 renal, with UO-31 renal, in the experiment with HCT-116 colon and in the experiment with HOP-92 NSCLC was greater than 100 µM each time. The GI50 in the experiment on HCT-116 colon was greater than 100 µM.
For `COC(=O)N(C(=O)OC)C(C(=O)O)C(C)C` (stereo unspecified), the TGI in the experiment on LOX IMVI melanoma, with NCI-H226 lung, with OVCAR-4 ovarian, in the experiment with SF-539 CNS, in the experiment on OVCAR-8 ovarian and with SF-268 CNS was greater than 100 µM throughout. The TGI with CAKI-1 renal, with UO-31 renal and with HOP-92 NSCLC was greater than 100 µM in each case.
For `C=C(C)C(=O)O[C@H]1C[C@@]23O[C@@H]2CCC(=C[C@H]2OC(=O)C(=C)[C@H]12)COC3O` (stereo partly specified), the TGI is 30.5 µM in the experiment on LOX IMVI melanoma; greater than 100 µM with NCI-H226 lung; greater than 100 µM in the experiment with OVCAR-4 ovarian; greater than 100 µM in the experiment with SF-539 CNS; greater than 100 µM with OVCAR-8 ovarian; greater than 100 µM in the experiment on SF-268 CNS. Besides, the TGI in the experiment with CAKI-1 renal was greater than 100 µM; in the experiment on HCT-116 colon, 37.5 µM; in the experiment on HOP-92 NSCLC it was 53.6 µM.
`CCCCCC[N+](C)(C)Cc1ccc(C[N+](C)(C)CCCCCC)cc1`: the TGI in the experiment on NCI-H226 lung was 20.4 µM; in the experiment with OVCAR-4 ovarian, greater than 100 µM; in the experiment with OVCAR-8 ovarian, 7.37 µM; in the experiment with SF-268 CNS, greater than 100 µM; with CAKI-1 renal, 14.6 µM; in the experiment with UO-31 renal it was 29.8 µM. Further, the TGI with HCT-116 colon is 12.8 µM; in the experiment on HOP-92 NSCLC, 7.17 µM.
For `COc1ccc(S(=O)(=O)Nc2ccccc2C(=O)O)cc1`, the TGI with LOX IMVI melanoma, in the experiment on NCI-H226 lung, in the experiment with OVCAR-4 ovarian, with SF-539 CNS, in the experiment with OVCAR-8 ovarian and in the experiment with SF-268 CNS was greater than 100 µM throughout. For the same compound, the TGI with CAKI-1 renal, with UO-31 renal and in the experiment with HOP-92 NSCLC was greater than 100 µM in each case.
With `FC(F)(F)c1nc2nc(Cl)c(Cl)nc2n1CCCN1CCOCC1`, the TGI in the experiment on LOX IMVI melanoma, in the experiment with NCI-H226 lung, with OVCAR-4 ovarian, with SF-539 CNS, with OVCAR-8 ovarian and in the experiment with SF-268 CNS was greater than 100 µM each time. Further, the TGI with CAKI-1 renal was 14.7 µM; in the experiment with HCT-116 colon, greater than 100 µM; in the experiment on HOP-92 NSCLC, greater than 100 µM.
With `C#Cc1cccc(N2C(=O)CCC2=O)c1`, the TGI in the experiment with LOX IMVI melanoma was determined as 32 µM; in the experiment with NCI-H226 lung, 35 µM; with OVCAR-4 ovarian it was 20.5 µM; with SF-539 CNS it was 46.9 µM; with OVCAR-8 ovarian it was 36.1 µM; in the experiment on SF-268 CNS it was 33.1 µM. Besides, the TGI in the experiment on CAKI-1 renal amounted to 29 µM; with UO-31 renal it was 31.9 µM; with HCT-116 colon, 23.1 µM.
With `CCC[CH2][Sn]1([CH2]CCC)[O]CC(Cc2ccccc2)[O]1` (stereo unspecified), the GI50 in the experiment with LOX IMVI melanoma is 1.68 µM; with NCI-H226 lung it was 15.4 µM; in the experiment with OVCAR-4 ovarian, 13.2 µM; with SF-539 CNS it was 1.87 µM; in the experiment with OVCAR-8 ovarian, 2.61 µM; with CAKI-1 renal it was 1.51 µM. The GI50 in the experiment on UO-31 renal is 6.17 µM; in the experiment on HCT-116 colon, 3.75 µM; in the experiment on HOP-92 NSCLC, 2.9 µM. Moreover, the TGI was determined as 3.63 µM in the experiment with LOX IMVI melanoma; 29.5 µM in the experiment with NCI-H226 lung; 26 µM in the experiment with OVCAR-4 ovarian; 4.15 µM in the experiment with SF-539 CNS; 6.59 µM with OVCAR-8 ovarian; 4.45 µM in the experiment with CAKI-1 renal. Besides, the TGI was 19 µM in the experiment with UO-31 renal, 13.5 µM in the experiment with HCT-116 colon and 8.67 µM with HOP-92 NSCLC.
For `COc1ccc(OC)c2c1CC(C(=O)O)(C(=O)O)CC2=O`, the TGI in the experiment on LOX IMVI melanoma, in the experiment with NCI-H226 lung, in the experiment with OVCAR-4 ovarian, in the experiment on SF-268 CNS, in the experiment with CAKI-1 renal and in the experiment on UO-31 renal was greater than 100 µM in each case. Further, the TGI in the experiment on HCT-116 colon and in the experiment with HOP-92 NSCLC was greater than 100 µM each time.
`C=C1C(O)C2C(=C(CCc3ccccc3)C13CC3)C(=O)C(C)(CO)C2O` (stereo unspecified): the GI50 with LOX IMVI melanoma, in the experiment on NCI-H226 lung, with OVCAR-4 ovarian, in the experiment on SF-539 CNS, with OVCAR-8 ovarian and in the experiment with SF-268 CNS was greater than 100 µM in each case. The GI50 in the experiment on CAKI-1 renal is greater than 100 µM; in the experiment with UO-31 renal, greater than 100 µM; in the experiment with HOP-92 NSCLC it was 12.5 µM. The TGI with LOX IMVI melanoma, in the experiment on NCI-H226 lung, in the experiment with OVCAR-4 ovarian, in the experiment on SF-539 CNS, with OVCAR-8 ovarian and with SF-268 CNS was greater than 100 µM in each case. The TGI in the experiment on CAKI-1 renal, in the experiment on UO-31 renal and in the experiment on HOP-92 NSCLC was greater than 100 µM in each case.
Consider `Cc1[nH]c2ccccc2c1C(=O)CC1(O)C(=O)Nc2ccccc21` (stereo unspecified), for which the TGI in the experiment with LOX IMVI melanoma, in the experiment on NCI-H226 lung, in the experiment with OVCAR-4 ovarian, with SF-539 CNS, with SF-268 CNS and in the experiment on CAKI-1 renal was greater than 100 µM throughout. In addition, the TGI with UO-31 renal, with HCT-116 colon and in the experiment on HOP-92 NSCLC was greater than 100 µM each time.
Consider `O=C(CP(=O)(O)O)NC(CC(=O)OCc1ccccc1)C(=O)OCc1ccccc1` (stereo unspecified), for which the TGI with NCI-H226 lung, with OVCAR-4 ovarian, with SF-539 CNS, in the experiment on OVCAR-8 ovarian, in the experiment with SF-268 CNS and in the experiment on CAKI-1 renal was greater than 100 µM each time. Also, the TGI in the experiment on UO-31 renal, with HCT-116 colon and in the experiment with HOP-92 NSCLC was greater than 100 µM each time.

These data come from PubChem BioAssay (NCI).
